Reference: paper PMC8565515, “Dasabuvir Inhibits Human Norovirus Infection in Human Intestinal Enteroids” (mSphere, 2021)
Counter-ions that a name gives are not always drawn. Like-named read-outs stand apart in the source and are kept apart here.

Experiments:
GII.4 HuNoV = GII.4 HuNoV infection of HIE monolayers, viral genome equivalents by RT-qPCR; format: cell-based, human norovirus; details: for activity at 10 µM: Norovirus, 24 h, read-out: (%) HuNoV GEs
[1] = compound 10 μM, n = 1, J2 HIE monolayers, GII.4 HuNoV, 24 hpi, normalized to DMSO control

Molecule	(%) Cytotoxicity (J2 HIE monolayers; human, 24 h, 10 μM)	activity at 10 µM (GII.4 HuNoV; [1])	also measured
Cc1cc(F)c(C(=O)Nc2cccc(-c3nncn3C(C)C)n2)cc1-n1cnc(C2CC2)c1 [Selonsertib]	-2.58%	48.5%	
CC(=O)Oc1c(C)c(C)c2c(c1C)CCC(C)(CCC[C@H](C)CCC[C@H](C)CCCC(C)C)O2 (stereo partly shown) [Vitamin E Acetate]		55.8%	
Cc1cn([C@H]2C=C[C@@H](CO)O2)c(=O)[nH]c1=O [Stavudine]	2.15%	124%	
CC(C)CN(C[C@@H](O)[C@H](Cc1ccccc1)NC(=O)O[C@H]1CO[C@H]2OCC[C@H]21)S(=O)(=O)c1ccc(N)cc1 [Darunavir]		91.8%	
Cc1cccc(N2CCN(S(=O)(=O)c3ccc4c(c3)CCCN4C(=O)C3CCC3)CC2)c1C [G855-2047]			(%) HuNoV GEs (GII.4 HuNoV; [1]): 133.69%
Cc1ccc(NC(=O)C(=O)NC2CC(C)(C)NC(C)(C)C2)cc1 [YYA-021]			(%) HuNoV GEs (GII.4 HuNoV; [1]): 54.17%
OC[C@H]1O[C@@H]2O[C@H]3[C@H](O)[C@@H](O)[C@@H](O[C@H]4[C@H](O)[C@@H](O)[C@@H](O[C@H]5[C@H](O)[C@@H](O)[C@@H](O[C@H]6[C@H](O)[C@@H](O)[C@@H](O[C@H]7[C@H](O)[C@@H](O)[C@@H](O[C@H]8[C@H](O)[C@@H](O)[C@@H](O[C@H]1[C@H](O)[C@H]2O)O[C@@H]8CO)O[C@@H]7CO)O[C@@H]6CO)O[C@@H]5CO)O[C@@H]4CO)O[C@@H]3CO [Beta-Cyclodextrin]	-0.91%	70.6%	
Cc1cn([C@H]2O[C@@H](CO)[C@H](O)[C@H]2F)c(=O)[nH]c1=O [Clevudine]	-0.09%	33.8%	
Maraviroc			(%) HuNoV GEs (GII.4 HuNoV; [1]): 52.60%
Dicurone			(%) HuNoV GEs (GII.4 HuNoV; [1]): 90.75%
CCOC(=O)c1cccc(NC(=O)CCn2nc(C)c(S(=O)(=O)N3CCCCC3)c2C)c1 [G402-0849]			(%) Cytotoxicity (J2 HIE monolayers): 1.12%; (%) HuNoV GEs (GII.4 HuNoV; [1]): 158.24%
O[C@H]1[C@H](O)[C@@H](O)[C@H](O)[C@@H](O)[C@H]1O [Inositol]	2.88%	44.9%	
CC1(C)S[C@@H]2[C@H](NC(=O)[C@H](NC(=O)N3CCNC3=O)c3ccccc3)C(=O)N2[C@H]1C(=O)O [Azlocillin sodium]		28%	
Nc1nc(=O)n([C@@H]2CS[C@H](CO)O2)cc1F [Emtricitabine]	2.80%	55.5%	
CC(C)[C@H](N)C(=O)OCC(CO)OCn1cnc2c(=O)nc(N)[nH]c21 (stereo partly shown) [Valganciclovir hydrochloride]	0.33%	189%	
C[C@@H]1CC[C@H]2[C@@H](C)C(=O)O[C@@H]3O[C@@]4(C)CC[C@@H]1[C@]32OO4 [Artemisinin]	1.63%	51.7%	
Nc1ncnc2c1ncn2[C@@H]1O[C@H](CO)[C@@H](O)[C@@H]1O [Vidarabine]	-2.58%	51.4%	
Nc1nc(NC2CC2)c2ncn([C@H]3C=C[C@@H](CO)C3)c2n1 [Abacavir]	0.27%	64.9%	
CN(C(=O)CN(CCO)CC(=O)N(C)C(C)(C)Cc1ccccc1)C(C)(C)Cc1ccccc1 [Oxethazaine]	1.91%	29.4%	
CCOC(=O)CCc1c(C)nc2c(c(C)nn2-c2ccc(C)cc2)c1C [C430-0518]			(%) Cytotoxicity (J2 HIE monolayers): -1.01%; (%) HuNoV GEs (GII.4 HuNoV; [1]): 170.30%
C=C1CC[C@@H]2[C@](C)(COC(=O)CCC(=O)[O-])[C@H](OC(=O)CCC(=O)O)CC[C@@]2(C)[C@@H]1/C=C/C1=CCOC1=O.[K+] [Dehydroandrographolide Succinate Potasium Salt]			(%) HuNoV GEs (GII.4 HuNoV; [1]): 40.48%
N[C@@H](CCC(=O)N[C@@H](CS[C@@H]1CCn2ccc(CO)c21)C(=O)NCC(=O)O)C(=O)O [6466-0862]			(%) Cytotoxicity (J2 HIE monolayers): -0.22%; (%) HuNoV GEs (GII.4 HuNoV; [1]): 155.85%

Molecule	(%) Cytotoxicity (J2 HIE monolayers; human, 24 h, 10 μM)	activity at 10 µM (GII.4 HuNoV; [1])	also measured
CN(C)c1ccc(C(=C2C=CC(=[N+](C)C)C=C2)c2ccc(N(C)C)cc2)cc1 [Crystal Violet]	55.49%	14.5%	
COc1cnc(-n2cnc(C)n2)c2c1c(C(=O)C(=O)N1CCN(C(=O)c3ccccc3)CC1)cn2COP(=O)(O)O [Fostemsavir]	-2.34%	87.3%	
CCn1cc(C(=O)O)c(=O)c2cc(F)c(N3CCNCC3)nc21 [Enoxacin]	0.62%	12.5%	
CC(C)CN(C[C@@H](O)[C@H](Cc1ccccc1)NC(=O)O[C@H]1CCOC1)S(=O)(=O)c1ccc(N)cc1 [Amprenavir]	-0.21%	15.9%	
O=C(O[C@@H]1Cc2c(O)cc(O)cc2O[C@@H]1c1cc(O)c(O)c(O)c1)c1cc(O)c(O)c(O)c1 [(-)-Epigallocatechin Gallate]	2.41%	198%	
Cc1cccc(C)c1OCC(=O)N[C@@H](Cc1ccccc1)[C@@H](O)C[C@H](Cc1ccccc1)NC(=O)[C@H](C(C)C)N1CCCNC1=O [Lopinavir]	9.07%	102%	
CC(C)(C)C(=O)OCOP(=O)(COCCn1cnc2c(N)ncnc21)OCOC(=O)C(C)(C)C [Adefovir dipivoxil]	3.59%		activity at 10 µM (GII.4 HuNoV): 67.1%
Nc1nc2c(ncn2COCCO)c(=O)[nH]1 [Aciclovir]	0.59%	54.4%	
CC(C)CN(C[C@@H](O)[C@H](Cc1ccccc1)NC(=O)O[C@H]1CO[C@H]2OCC[C@H]21)S(=O)(=O)c1ccc(N)cc1.CCO [Darunavir Ethanolate]			(%) HuNoV GEs (GII.4 HuNoV; [1]): 147.86%
Cc1nn(CCC(=O)Nc2cccc(C#N)c2)c(C)c1S(=O)(=O)N1CCCCC1 [G402-0939]			(%) HuNoV GEs (GII.4 HuNoV; [1]): 147.17%
C=C(C)[C@@H]1CC[C@]2(C(=O)O)CC[C@]3(C)[C@H](CC[C@@H]4[C@@]5(C)CC[C@H](O)C(C)(C)[C@@H]5CC[C@]43C)[C@@H]12 [Betulinic acid]		16.4%	
O=C(O)P(=O)(O)O [Foscarnet sodium]	1.07%	88.5%	
O=C(O)[C@H]1O[C@@H](Oc2cc3oc(-c4ccccc4)cc(=O)c3c(O)c2O)[C@H](O)[C@@H](O)[C@@H]1O [Baicalin]		97.7%	
Nc1ccn([C@@H]2O[C@H](CO)[C@@H](O)[C@@H]2O)c(=O)n1 [Cytarabine]	-0.77%	31.3%	
CN(C)CC[C@@H](c1ccc(Cl)cc1)c1ccccn1 [Dexchlorpheniramine Maleate]	-3.40%	63.6%	
C=C1[C@H](CO)[C@@H](O)C[C@@H]1n1cnc2c(=O)[nH]c(N)nc21 [Entecavir hydrate]	-1.04%	23.6%	
COC(=O)C(C)(N)C(C)(C)C (stereo not shown) [6526-0824]			(%) Cytotoxicity (J2 HIE monolayers): 2.41%; (%) HuNoV GEs (GII.4 HuNoV; [1]): 131.97%
CC[C@@H](CO)NCCN[C@@H](CC)CO [Ethambutol dihydrochloride]	0.23%	100%	
O=c1[nH]c(=O)n([C@H]2C[C@H](O)[C@@H](CO)O2)cc1F [Floxuridine]	0.65%	12.6%	
C=C(C)[C@@H]1CC[C@]2(CO)CC[C@]3(C)[C@H](CC[C@@H]4[C@@]5(C)CC[C@H](O)C(C)(C)[C@@H]5CC[C@]43C)[C@@H]12 [Betulin]		69.8%	(%) Cytotoxicity (J2 HIE monolayers; human): 4.24%
C=CC1=C(C(=O)O)N2C(=O)[C@@H](NC(=O)/C(=N\OCC(=O)O)c3csc(N)n3)[C@H]2SC1 [Cefixime]	2.28%	41.9%	
NC(=O)c1ncn([C@@H]2O[C@H](CO)[C@@H](O)[C@H]2O)n1 [Ribavirin]		64.5%	

Molecule	(%) Cytotoxicity (J2 HIE monolayers; human, 24 h, 10 μM)	activity at 10 µM (GII.4 HuNoV; [1])	also measured
Nc1nc2c(ncn2CCC(CO)CO)c(=O)[nH]1 [Penciclovir]	2.02%	22.1%	
O=C(Nc1nc2ccc3scnc3c2s1)c1ccc2ccccc2c1 [KIN1148]			(%) HuNoV GEs (GII.4 HuNoV; [1]): 58.10%
S=C(NCCc1ccccn1)Nc1ccc(Br)cn1 [Trovirdine]			activity at 10 µM (GII.4 HuNoV): 48.3%
C[C@@H](c1ncncc1F)[C@](O)(Cn1cncn1)c1ccc(F)cc1F [Voriconazole]	-1.63%	14.1%	
Clc1ccccc1C(c1ccccc1)(c1ccccc1)n1ccnc1 [Clotrimazole]	0.51%	159%	
Cc1nc(Nc2ccc(F)cc2)nc(N2CCc3ccccc3C2C)c1C (stereo not shown) [Revaprazan hydrochloride]	0.20%	214%	
O=C(Nc1ccccc1)c1ccccc1O [Salicylanilide]		85.5%	
CCOC(=O)c1ccc(OCCC2CCN(c3ccc(C)nn3)CC2)cc1 [Pirodavir]	-3.64%	50.5%	
Cc1cc(O)cc(C)c1Cl [Chloroxylenol]		65.9%	
Cc1c(-c2cnccn2)ssc1=S [Oltipraz]		7.76%	
C[C@H](NC(=O)C(=O)Nc1ccccc1C(C)(C)C)C(=O)N[C@@H](CC(=O)O)C(=O)COc1c(F)c(F)cc(F)c1F [Emricasan]		198%	
C[C@@]1(F)[C@H](O)[C@@H](CO)O[C@H]1n1ccc(=O)[nH]c1=O [PSI6206]			(%) HuNoV GEs (GII.4 HuNoV; [1]): 143.70%
Cn1c(Cn2ccc(C(F)(F)F)c(Oc3cc(Cl)cc(C#N)c3)c2=O)n[nH]c1=O [Doravirine]		32.7%	
COC(=O)C1=C(C)NC(c2ncc(F)cc2F)=NC1c1ccc(F)cc1Cl (racemic) [Bay 41-4109 racemate]			(%) HuNoV GEs (GII.4 HuNoV; [1]): 39.26%
NC12CC3CC(CC(C3)C1)C2 [Amantadine hydrochloride]		232%	
Dermofongin			(%) HuNoV GEs (GII.4 HuNoV; [1]): 46.93%
HZ-1157			(%) HuNoV GEs (GII.4 HuNoV; [1]): 36.74%
C[C@@H]1CCO[C@H]2Cn3cc(C(=O)NCc4ccc(F)cc4F)c(=O)c(O)c3C(=O)N12 [Dolutegravir]		8.52%	
NC(=O)N1CCC(CC(=O)N2CCC([C@H]3c4ncc(Br)cc4CCc4cc(Cl)cc(Br)c43)CC2)CC1 [Lonafarnib]		62.3%	
Cc1cn([C@H]2C[C@H](N=[N+]=[N-])[C@@H](CO)O2)c(=O)[nH]c1=O [Zidovudine]		57.6%	
